In US10508077B2 (FORMA Therapeutics, Inc., priority 2015, dated 2019):

Key:
[1] = biological target: T1, Full length human recombinant HDAC8 protein (Homo sapiens, UniProt Q9BY41); assay: In vitro histone deacetylase assay: enzymatic HDAC8 assay, electrophoretic mobility shift; assay type: biochemical; details: substrate RHKK(Ac)-NH2, 1 nM enzyme, compounds listed under IC50 range headings
T1 construct: Full length human recombinant HDAC8 protein was expressed in baculoviral system; made in house
T1 sequence (Q9BY41 1-377): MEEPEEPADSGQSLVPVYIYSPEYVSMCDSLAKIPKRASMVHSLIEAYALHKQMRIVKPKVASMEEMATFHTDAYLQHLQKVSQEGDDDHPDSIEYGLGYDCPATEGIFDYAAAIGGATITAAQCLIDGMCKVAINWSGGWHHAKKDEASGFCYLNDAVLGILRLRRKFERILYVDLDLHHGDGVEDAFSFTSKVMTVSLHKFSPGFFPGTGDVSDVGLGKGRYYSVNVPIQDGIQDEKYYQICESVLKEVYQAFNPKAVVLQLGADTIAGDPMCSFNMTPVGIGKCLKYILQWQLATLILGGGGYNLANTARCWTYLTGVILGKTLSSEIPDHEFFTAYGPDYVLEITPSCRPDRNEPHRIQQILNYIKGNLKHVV
How it was run: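 Readout was microfluidic mobility-shift separation of deacetylated product from fluorescent RHKK(Ac)-NH2 substrate (2 µM), after reaction with 1 nM recombinant full-length human HDAC8 at 25 °C, pH 7.5, stopped with SDS. Twelve 3-fold-spaced concentrations tested; product/sum ratios normalized to controls and fitted with a 4-parameter model for IC50.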

[2] = biological target: T2, Recombinant N-terminal GST tag full-length human HDAC8 (Homo sapiens, UniProt Q9BY41); assay: HDAC8 probe binding assay, time resolved fluorescence (TRF); details: fluorescein labeled pan-HDAC inhibitor probe, 16 hours incubation, compounds listed under IC50 range headings
T2 construct: Recombinant N-terminal GST tag full-length human HDAC8; purchased SignalChem H90-30G-1000; host or cells: Sf9 insect cells (baculovirus)
T2 sequence (Q9BY41 1-377): T1 sequence (Q9BY41 1-377)
Experimental: The HDAC8 probe binding assay was performed using a time resolved fluorescence (TRF) assay format. Recombinant N-terminal GST tag full-length human HDAC8 was expressed and purified from baculovirus in Sf9 insect cells (SignalChem, #H90-30G-1000), Each assay was performed in 1536 black well microplates (Corning, #3936) in a final volume of 4 μL in assay buffer containing 50 mM HEPES (pH 7.5), 50 mM KCl, 50 mM NaCl, 0.5 mM GSH (L-Glutathione reduced, Sigma #G4251), 0.03% BGG (0.22 μM filtered, Sigma, #G7516-25G), and 0.01% Triton X-100 (Sigma, #T9284-10L). 20 nL of 10-point, 3-fold serial dilution in DMSO was pre-dispensed into respective wells of 1536 assay plates for a final test concentration range of 25 μM to 1.3 nM respectively. The final concentration in the assay of HDAC8 and probe (a fluorescein labeled pan-HDAC inhibitor) was 2.5 nM and 1.5 nM respectively. 2 μL of 2× probe and 2× anti-GST Terbium (Cisbio, #61GSTXLB) was added to assay plates followed by 2 μL of 2× HDAC8. Plates were incubated for 16 hours at room temperature before time resolved fluorescence was read on the Envision (Excitation at 340 nm, and Emission at 485 nm and 535 nm, Perkin Elmer).
Data from HDAC8 Assays were reported as percent inhibition (inh) compared with control wells based on the following equation: % inh=1−((FLU−AveLow)/(AveHigh−AveLow)) where FLU=measured time resolved fluorescence. AveLow=average time resolved fluorescence of no enzyme control (n=32). AveHigh=average time resolved fluorescence of DMSO control (n=32). IC50 values were determined by curve fitting of the standard 4 parameter logistic fitting algorithm included in the Activity Base software package: IDBS XE Designer Model205. Data is fitted using the Levenburg Marquardt algorithm.

Work on `O=C(/C=C/c1ccccc1NC(=O)c1cc2ccccc2[nH]1)NO` [Example I-77] yielded an IC50 [1] of under 1000 nM and an IC50 [2] of at most 1000 nM.
`CCn1c(C(=O)Nc2ccccc2/C=C/C(=O)NO)cc2ccccc21` [Example I-79, (E)-1-ethyl-N-(2-(3-(hydroxyamino)-3-oxoprop-1-en-1-yl)phenyl)-1H-indole-2-carboxamide] was tested, and the IC50 [1] was under 1000 nM and the IC50 [2] was at most 1000 nM.
Compound `O=C(/C=C/c1ccccc1NC(=O)[C@H]1C[C@@H]1c1ccccc1)NO` [Example I-83, (1S,2S)-N-(2-((E)-3-(hydroxyamino)-3-oxoprop-1-en-1-yl)phenyl)-2-phenylcyclopropane-1-carboxamide] has an IC50 [1] of under 1000 nM and an IC50 [2] of at most 1000 nM.
Compound `O=C(/C=C/c1ccccc1NC(=O)C1CCC2(CC1)CC2)NO` [Example I-84, (E)-N-(2-(3-(hydroxyamino)-3-oxoprop-1-en-1-yl)phenyl)spiro[2.5]octane-6-carboxamide] has an IC50 [1] of under 1000 nM and an IC50 [2] of at most 1000 nM.
In the case of `CS(=O)(=O)c1nc(C(=O)Nc2ccccc2/C=C/C(=O)NO)c2ccccn12` [Example I-85, (E)-N-(2-(3-(hydroxyamino)-3-oxoprop-1-en-1-yl)phenyl)-3-(methylsulfonyl)imidazo[1,5-a]pyridine-1-carboxamide], the IC50 [1] is reported as under 1000 nM and the IC50 [2] is reported as at most 1000 nM.
For `O=C(/C=C/c1ccccc1NCc1ccccn1)NO` [Example I-89], the IC50 [1] was under 1000 nM and the IC50 [2] was at most 1000 nM.
`O=C(/C=C/c1ccccc1NCc1nccs1)NO` [Example I-91, (E)-N-hydroxy-3-(2-((thiazol-2-ylmethyl)amino)phenyl)acrylamide] gave an IC50 [1] of under 1000 nM and an IC50 [2] of at most 1000 nM.
`O=C(/C=C/c1ccccc1NCc1cccnc1)NO` [Example I-93] gave an IC50 [1] of under 1000 nM and an IC50 [2] of at most 1000 nM.
`Cc1cc(CNc2ccccc2/C=C/C(=O)NO)n(C)n1` [Example I-94, (E)-3-(2-(((1,3-dimethyl-1H-pyrazol-5-yl)methyl)amino)phenyl)-N-hydroxyacrylamide] gave an IC50 [1] of under 1000 nM and an IC50 [2] of at most 1000 nM.
`CS(=O)(=O)c1ccc(CNc2ccccc2/C=C/C(=O)NO)cc1` [Example I-95, (E)-N-hydroxy-3-(2-((4-(methylsulfonyl)benzyl)amino)phenyl)acrylamide] gave an IC50 [1] of under 1000 nM and an IC50 [2] of at most 1000 nM.
With `O=C(/C=C/c1ccccc1NCc1ccc(-c2nnn[nH]2)cc1)NO` [Example I-96, (E)-3-(2-((4-(1H-tetrazol-5-yl)benzyl)amino)phenyl)-N-hydroxyacrylamide] the IC50 [1] was under 1000 nM and the IC50 [2] was at most 1000 nM.
`O=C(/C=C/c1ccccc1NCc1cccc(N2CCOCC2)c1)NO` [Example I-97, (E)-N-hydroxy-3-(2-((3-morpholinobenzyl)amino)phenyl) acrylamide] gave an IC50 [1] of under 1000 nM and an IC50 [2] of at most 1000 nM.
Compound `O=C(/C=C/c1ccccc1NCc1ccnc(N2CCOCC2)c1)NO` [Example I-98, (E)-N-hydroxy-3-(2-(((2-morpholinopyridin-4-yl)methyl)amino)phenyl)acrylamide] has an IC50 [1] of under 1000 nM and an IC50 [2] of at most 1000 nM.
`CS(=O)(=O)c1cccc(CNc2ccccc2/C=C/C(=O)NO)c1` [Example I-100, (E)-N-hydroxy-3-(2-((3-(methylsulfonyl)benzyl)amino)phenyl)acrylamide] was tested, and the IC50 [1] was under 1000 nM and the IC50 [2] was at most 1000 nM.
Work on `O=C(/C=C/c1ccccc1NCc1cccc(CN2CCOCC2)c1)NO` [Example I-101, (E)-N-hydroxy-3-(2-((3-(morpholinomethyl)benzyl)amino)phenyl)acrylamide] yielded an IC50 [1] of under 1000 nM and an IC50 [2] of at most 1000 nM.
Work on `O=C(/C=C/c1ccccc1NCc1ccc2nccn2c1)NO` [Example I-103, (E)-N-hydroxy-3-(2-((imidazo[1,2-a]pyridin-6-ylmethyl)amino)phenyl)acrylamide] yielded an IC50 [1] of under 1000 nM and an IC50 [2] of at most 1000 nM.
For `O=C(/C=C/c1ccccc1NCc1c[nH]nc1-c1ccc(C(F)(F)F)cc1)NO` [Example I-104], the IC50 [1] was under 1000 nM and the IC50 [2] was at most 1000 nM.
Work on `NC(=O)CCc1cccc(C(=O)Nc2ccccc2/C=C/C(=O)NO)c1` [Example I-107, (E)-3-(3-amino-3-oxopropyl)-N-(2-(3-(hydroxyamino)-3-oxoprop-1-en-1-yl)phenyl)benzamide] yielded an IC50 [1] of under 1000 nM and an IC50 [2] of at most 1000 nM.
In the case of `O=C(/C=C/c1ccccc1N1CCC2(CCNC2)C1)NO` (stereo not shown) [Example I-113, (E)-3-(2-(2,7-diazaspiro[4.4]nonan-2-yl)phenyl)-N-hydroxyacrylamide 2,2,2-trifluoroacetate], the IC50 [1] is reported as under 1000 nM and the IC50 [2] is reported as at most 1000 nM.
`O=C(/C=C/c1ccccc1N1CCC2(CCNCC2)C1)NO` [Example I-115, (E)-3-(2-(2,8-diazaspiro[4.5]decan-2-yl)phenyl)-N-hydroxyacrylamide 2,2,2-trifluoroacetate] showed an IC50 [1] of under 1000 nM and an IC50 [2] of at most 1000 nM.
In the case of `O=C(/C=C/c1ccncc1NC(=O)c1cccc(C(F)(F)F)c1)NO` [Example I-123, (E)-N-(4-(3-(hydroxyamino)-3-oxoprop-1-enyl)pyridin-3-yl)-3-(trifluoromethyl)benzamide], the IC50 [1] is reported as under 1000 nM and the IC50 [2] is reported as at most 1000 nM.
For `Cc1cc(C(=O)NC2CCN(c3ccccc3/C=C/C(=O)NO)CC2)n[nH]1` [Example I-134, (E)-N-(1-(2-(3-(hydroxyamino)-3-oxoprop-1-en-1-yl)phenyl)piperidin-4-yl)-5-methyl-1H-pyrazole-3-carboxamide], the IC50 [1] was under 1000 nM and the IC50 [2] was at most 1000 nM.
Work on `O=C(/C=C/c1ccccc1N1CCC(NC(=O)c2ccnn2C(F)F)CC1)NO` [Example I-148] yielded an IC50 [1] of under 1000 nM and an IC50 [2] of at most 1000 nM.
For `O=C(/C=C/c1ccccc1N1CCC(NC(=O)c2ccc3[nH]ccc3c2)CC1)NO` [Example I-153, (E)-N-(1-(2-(3-(hydroxyamino)-3-oxoprop-1-en-1-yl)phenyl)piperidin-4-yl)-1H-indole-5-carboxamide], the IC50 [1] was under 1000 nM and the IC50 [2] was at most 1000 nM.
Work on `O=C(/C=C/c1ccccc1N1CCN(Cc2nccs2)CC1)NO` [Example I-170, (E)-N-hydroxy-3-(2-(4-(thiazol-2-ylmethyl)piperazin-1-yl)phenyl)acrylamide] yielded an IC50 [1] of under 1000 nM and an IC50 [2] of at most 1000 nM.
Work on `O=C(/C=C/c1ccccc1N1CCN(Cc2cccnc2)CC1)NO` [Example I-179, (E)-N-hydroxy-3-(2-(4-(pyridin-3-ylmethyl)piperazin-1-yl)phenyl)acrylamide] yielded an IC50 [1] of under 1000 nM and an IC50 [2] of at most 1000 nM.
Work on `Cn1cncc1CN1CCN(c2ccccc2/C=C/C(=O)NO)CC1` [Example I-180, (E)-N-hydroxy-3-(2-(4-((1-methyl-1H-imidazol-5-yl)methyl)piperazin-1-yl)phenyl)acrylamide] yielded an IC50 [1] of under 1000 nM and an IC50 [2] of at most 1000 nM.
`O=C(/C=C/c1ccccc1N1CCN(Cc2ccc(N3CCCC3)nc2)CC1)NO` [Example I-182, (E)-N-hydroxy-3-(2-(4-((6-(pyrrolidin-1-yl)pyridin-3-yl)methyl)piperazin-1-yl)phenyl)acrylamide] showed an IC50 [1] of under 1000 nM and an IC50 [2] of at most 1000 nM.
Work on `Cc1cc(CN2CCN(c3ccccc3/C=C/C(=O)NO)CC2)n(C)n1` [Example I-183, (E)-3-(2-(4-((1,3-dimethyl-1H-pyrazol-5-yl)methyl)piperazin-1-yl)phenyl)-N-hydroxyacrylamide] yielded an IC50 [1] of under 1000 nM and an IC50 [2] of at most 1000 nM.
With `Cc1ncsc1C(=O)N1CCN(c2ccccc2/C=C/C(=O)NO)CC1` [Example I-200, (E)-N-hydroxy-3-(2-(4-(4-methylthiazole-5-carbonyl)piperazin-1-yl)phenyl)acrylamide] the IC50 [1] was under 1000 nM and the IC50 [2] was at most 1000 nM.
Compound `O=C(/C=C/c1ccccc1N1CCN(C(=O)c2cnn3c2OCCC3)CC1)NO` [Example I-204, (E)-3-(2-(4-(6,7-dihydro-5H-pyrazolo[5,1-b][1,3]oxazine-3-carbonyl)piperazin-1-yl)phenyl)-N-hydroxyacrylamide] has an IC50 [1] of under 1000 nM and an IC50 [2] of at most 1000 nM.
`O=C(/C=C/c1ccccc1N1CCN(C(=O)c2cn[nH]c2)CC1)NO` [Example I-206] showed an IC50 [1] of under 1000 nM and an IC50 [2] of at most 1000 nM.
